# Source: patent US7989457B2 (Eli Lilly and Company, priority 2004, dated 2011)
# Target: cloned human glucagon receptor (Homo sapiens, UniProt P47871)
# Experiment: Glucagon Receptor (hGlucR) Binding Assay
# Method: This plasmid DNA was transfected into 293 HEK cells and selec ted with 200 ug/mL Hygromycin.
# Crude plasma membranes are prepared using cells from suspension culture. The cells are lysed on ice in hypotonic buffer containing 25 mM Tris HCL, pH 7.5, 1 mM MgCl2, DNAsel, 20 u/mL, and Roche Complete Inhibitors-without EDTA. The cell suspension is homogenized with a glass dounce homogenizer using a Teflon pestle for 25 strokes. The homogenate is centrifuged at 4° C. at 1800×g for 15 mins. The supernate is collected and the pellet is resuspended in hypotonic buffer and rehomogenized. The mixture is centrifuged at 1800×g for 15 mins. The second supernate is combined with the first supernate. The combined supernates are recentrifuged at 1800×g for 15 mins to clarify. The clarified supernate is transferred to high speed tubes and centrifuged at 25000×g for 30 minutes at 4° C. The membrane pellet is resuspended in homogenization buffer and stored as frozen aliquots at −80° C. freezer until needed.
# The specific activity is 2200 Ci/mmol.
# The binding buffer contains 25 mM Hepes, pH 7.4, 2.5 mM CaCl2, 1 mM MgCl2, 0.1% fatty acid free BSA, (ICN), 0.003% tween-20, and Roche Complete Inhibitors without EDTA. […] Test compounds are dissolved in DMSO and serially diluted in DMSO. […] Plates are read with a MicroBeta after 14 hours of settling time at room temp. […]
# Chain of cloned human glucagon receptor (P47871 26-477): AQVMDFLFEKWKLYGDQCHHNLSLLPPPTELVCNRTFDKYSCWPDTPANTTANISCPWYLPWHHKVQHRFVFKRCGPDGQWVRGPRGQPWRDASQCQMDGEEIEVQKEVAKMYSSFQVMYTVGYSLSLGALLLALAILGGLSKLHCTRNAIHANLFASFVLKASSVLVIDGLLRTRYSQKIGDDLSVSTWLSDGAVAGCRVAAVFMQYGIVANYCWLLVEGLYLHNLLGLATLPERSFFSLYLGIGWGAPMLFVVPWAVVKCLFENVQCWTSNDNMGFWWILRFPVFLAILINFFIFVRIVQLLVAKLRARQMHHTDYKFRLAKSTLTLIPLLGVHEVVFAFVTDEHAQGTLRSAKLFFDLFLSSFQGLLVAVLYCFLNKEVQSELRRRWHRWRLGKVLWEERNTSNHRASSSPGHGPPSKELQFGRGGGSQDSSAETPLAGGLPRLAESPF
row,Ki [nM],SMILES
1,951,CCC(COc1ccc(C(=O)NCCC(=O)O)cc1)c1ccc(-c2ccc(C(F)(F)F)cc2)cc1 (racemic)
2,801,CC(Oc1ccc(C(=O)NCCC(=O)O)cc1)c1ccc(-c2ccc(C(F)(F)F)cc2)nc1 (racemic)
